These results are taken from DBAASP.

Converted amounts (≈) assume the structure as drawn.

What all share (assay): ≥ marks a high value that may be exact or a test limit, other limits are often not marked, values filed in µg/mL are converted to µM
One experiment deals with Sporothrix schenckii.
Experiment [1] concerns Pseudomonas aeruginosa ATCC BAA-427.
Another experiment has as its system Cryptococcus neoformans.
Experiment [2] has as its system Staphylococcus aureus ATCC BAA-44.
The test system of experiment [3] is Bacillus subtilis ATCC 6633.
For experiment [4], the system named is Staphylococcus aureus ATCC 700699.
Experiment [5] has as its system Candida albicans ATCC 10231.
Experiment [6] concerns Candida parapsilosis ATCC 22019.
Experiment [7] has as its system Escherichia coli ATCC 9637.
The test system of experiment [8] is Staphylococcus aureus ATCC 33592.
Experiment [9] has as its system Klebsiella pneumoniae ATCC 27736.
The subject of experiment [10] is Staphylococcus aureus ATCC 25923.
In experiment [11] the test system is Staphylococcus aureus ATCC 29213.
Experiment [12] concerns Staphylococcus aureus ATCC 700698.
Experiment [13] has as its system Lactobacillus acidophilus ATCC 14931.
The subject of experiment [14] is Actinomyces viscosus ATCC 15987.
Experiment [15] relates to Actinomyces naeslundii ATCC 12104.
The subject of experiment [16] is Streptococcus gordonii DL1.
The test system of experiment [17] is Lacticaseibacillus casei ATCC 393.
For experiment [18], the system named is Streptococcus mutans UA159.
In experiment [19] the test system is Streptococcus sanguinis ATCC 10556.
Experiment [20] relates to Limosilactobacillus fermentum ATCC 9338.
Experiment [21] relates to Streptococcus oralis ATCC 9811.
For experiment [22], the system named is Streptococcus gordonii ATCC 10558.
The subject of experiment [23] is Acinetobacter baumannii NR-17784.
Experiment [24] relates to Pseudomonas aeruginosa ATCC 27853.
Experiment [25] relates to Pseudomonas aeruginosa ATCC 9027.
The subject of experiment [26] is Acinetobacter baumannii NR-13375.
The test system of experiment [27] is Acinetobacter baumannii ATCC BAA-747.
Experiment [28] concerns Pseudomonas aeruginosa 1017.
In experiment [29] the test system is Acinetobacter baumannii NR-9667.
The subject of experiment [30] is Pseudomonas aeruginosa ATCC BAA-1744.
Experiment [31] deals with Acinetobacter baumannii ATCC BAA-1605.
Experiment [32] deals with Pseudomonas aeruginosa ATCC 15442.
Experiment [33] deals with Pseudomonas aeruginosa ATCC 35032.
The test system of experiment [34] is Pseudomonas aeruginosa 1125.
The subject of experiment [35] is Pseudomonas aeruginosa ATCC 9721.
Experiment [36] concerns Acinetobacter baumannii ATCC 19606.
The subject of experiment [37] is Acinetobacter baumannii NR-13382.
Experiment [38] relates to Pseudomonas aeruginosa ATCC 10145.
The test system of experiment [39] is Pseudomonas aeruginosa 1109.
The test system of experiment [40] is Pseudomonas aeruginosa 1131.
The subject of experiment [41] is Pseudomonas aeruginosa ATCC 25619.
Experiment [42] relates to Escherichia coli ATCC 25922.
The test system of experiment [43] is Klebsiella pneumoniae ATCC 13883.
Experiment [44] has as its system Pseudomonas aeruginosa PAO1.
In experiment [45] the test system is Staphylococcus aureus USA 300 LAC.
In experiment [46] the test system is Staphylococcus aureus USA 300.

The MIC is the lowest concentration found to suppress growth. Read a high MIC as a less susceptible organism. In the case of `CC[C@H](C)[C@H](NC(=O)[C@H](C)NC(=O)CNC(=O)[C@H](CCCCN)NC(=O)[C@@H](NC(=O)[C@H](CC(C)C)NC(=O)[C@H](Cc1c[nH]c2ccccc12)NC(=O)CNC(=O)[C@H](Cc1ccccc1)NC(=O)[C@@H](N)Cc1ccccc1)[C@@H](C)CC)C(=O)N[C@@H](Cc1cnc[nH]1)C(=O)N[C@@H](C)C(=O)NCC(=O)N[C@@H](CCCCN)C(=O)N[C@@H](C)C(=O)N[C@H](C(=O)N[C@@H](Cc1cnc[nH]1)C(=O)N1CCC[C@H]1C(=O)N[C@@H](CC(C)C)C(=O)N[C@H](C(=O)N[C@@H](Cc1cnc[nH]1)C(=O)N[C@@H](CCCN=C(N)N)C(=O)N[C@@H](CCCN=C(N)N)C(=O)N[C@@H](CCCN=C(N)N)C(=O)N[C@@H](Cc1cnc[nH]1)C(=O)O)[C@@H](C)CC)[C@@H](C)CC` [FFGWLIKGAIHAGKAIHPLIHRRRH], the MIC was 27.2 µM (≈ 79.8 µg/mL) in the experiment on Sporothrix schenckii; 6.8 µM (≈ 19.9 µg/mL) in [1]; 13.6 µM (≈ 39.9 µg/mL) in the experiment on Cryptococcus neoformans; 3 µM (≈ 8.8 µg/mL) in [2]; 3 µM (≈ 8.8 µg/mL) in experiment [3]; 3 µM (≈ 8.8 µg/mL) in experiment [4]. For the same molecule, the MIC came to 13.6 µM (≈ 39.9 µg/mL) in [5]; 13.6 µM (≈ 39.9 µg/mL) in [6]; 3 µM (≈ 8.8 µg/mL) in experiment [7]; 1.6 µM (≈ 4.69 µg/mL) in [8]; 13.6 µM (≈ 39.9 µg/mL) in experiment [9]; 3 µM (≈ 8.8 µg/mL) in experiment [10]. Besides, the MIC worked out at 6.8 µM (≈ 19.9 µg/mL) in [11] and 3 µM (≈ 8.8 µg/mL) in [12].
Consider `CC(C)C[C@H](NC(=O)CN)C(=O)N[C@@H](CC(C)C)C(=O)N[C@@H](Cc1c[nH]c2ccccc12)C(=O)N[C@@H](Cc1cnc[nH]1)C(=O)N[C@@H](CC(C)C)C(=O)N[C@@H](CC(C)C)C(=O)N[C@@H](Cc1cnc[nH]1)C(N)=O` [GLLWHLLH], for which the MIC is ≥ 130 µM in experiment [13]; ≥ 32.4 µM in [14]; ≥ 130 µM in [15]; ≥ 518 µM in experiment [16]; ≥ 64.8 µM in experiment [17]; ≥ 259 µM in experiment [18]. Moreover, the minimum inhibitory concentration (MIC) in [19] was ≥ 518 µM; in experiment [20] it was ≥ 130 µM.
As for `CC[C@H](C)[C@H](NC(=O)[C@H](CCC(N)=O)NC(=O)[C@H](CCC(=O)O)NC(=O)[C@H](CCCCN)NC(=O)[C@@H]1CCCN1C(=O)[C@H](CC(C)C)NC(=O)[C@H](CS)NC(=O)[C@H](CO)NC(=O)[C@H](CC(C)C)NC(=O)[C@@H](NC(=O)[C@H](C)NC(=O)[C@H](CS)NC(=O)[C@H](CCCN=C(N)N)NC(=O)CNC(=O)CNC(=O)CNC(=O)CNC(=O)[C@H](Cc1c[nH]c2ccccc12)NC(=O)[C@@H](NC(=O)[C@H](Cc1cnc[nH]1)NC(=O)[C@H](CCSC)NC(=O)CNC(=O)[C@@H]1CCCN1C(=O)[C@H](C)NC(=O)[C@H](CC(=O)O)NC(=O)[C@@H]1CCCN1C(=O)[C@H](CC(C)C)NC(=O)[C@H](CCCCN)NC(=O)[C@@H](N)CCCN=C(N)N)[C@@H](C)O)C(C)C)C(=O)O` [RKLPDAPGMHTWGGGGRCAVLSCLPKEQI], the figures for the minimum inhibitory concentration (MIC) in experiment [21], in experiment [19] and in [22] were ≥ 208 µM, ≥ 227 µM and ≥ 294 µM, respectively.
Consider `CC[C@H](C)[C@H](NC(=O)[C@H](CCCN=C(N)N)NC(=O)[C@H](CCCN=C(N)N)NC(=O)[C@H](CC(C)C)NC(=O)[C@@H](N)Cc1c[nH]c2ccccc12)C(=O)N[C@@H](CCCCN)C(=O)N[C@@H](C)C(=O)N[C@@H](Cc1c[nH]c2ccccc12)C(=O)N[C@@H](CC(C)C)C(=O)N[C@@H](CCCN=C(N)N)C(=O)N[C@@H](CCCN=C(N)N)C(=O)N[C@@H](CCCCN)C(=O)N[C@@H](CCCN=C(N)N)C(=O)N[C@@H](CCCCN)C(=O)O` [WLRRIKAWLRRKRK], for which the minimal inhibitory concentration (MIC) is 4 µM (≈ 7.87 µg/mL) in [23]; 8 µM (≈ 15.7 µg/mL) in [24]; 4 µM (≈ 7.87 µg/mL) in experiment [25]; 8 µM (≈ 15.7 µg/mL) in experiment [26]; 8 µM (≈ 15.7 µg/mL) in experiment [27]; ≥ 64 µM in experiment [28]. Further, the MIC in experiment [29] was ≥ 32 µM; in [30] it was 16 µM (≈ 31.5 µg/mL); in [31], 16 µM (≈ 31.5 µg/mL); in experiment [32], 16 µM (≈ 31.5 µg/mL); in experiment [33], 16 µM (≈ 31.5 µg/mL); in experiment [34], ≥ 32 µM. In addition, the minimal inhibitory concentration (MIC) in experiment [35] amounted to 16 µM (≈ 31.5 µg/mL); in experiment [36], 16 µM (≈ 31.5 µg/mL); in experiment [37], 16 µM (≈ 31.5 µg/mL); in [38], 16 µM (≈ 31.5 µg/mL); in experiment [39], 8 µM (≈ 15.7 µg/mL); in [40], 16 µM (≈ 31.5 µg/mL). The same molecule had an MIC in [41] of 4 µM (≈ 7.87 µg/mL).
For `CC[C@H](C)[C@H](NC(=O)[C@H](CCCN=C(N)N)NC(=O)[C@H](CCCN=C(N)N)NC(=O)[C@H](CC(C)C)NC(=O)[C@H](CCCN=C(N)N)NC(=O)[C@H](Cc1c[nH]c2ccccc12)NC(=O)[C@@H](N)Cc1c[nH]c2ccccc12)C(=O)N[C@@H](Cc1c[nH]c2ccccc12)C(N)=O` [WWRLRRIW], the MIC in experiment [42] was determined as 25 µM (≈ 31.8 µg/mL); in [43] it was 25 µM (≈ 31.8 µg/mL); in experiment [44], 12.5 µM (≈ 15.9 µg/mL); in experiment [45], 12.5 µM (≈ 15.9 µg/mL); in experiment [46], 12.5 µM (≈ 15.9 µg/mL).
